In brackets after ≈: the same amount, converted by molar mass. Read-outs that look alike come from different tables or passages of the source. Positions of bridges follow the written chain, without caps; N, C: chain ends. Non-standard residues stand in square brackets, D forms with d. Residues, ends and D or L forms follow the SMILES beside them. ξ: configuration not given here. *: point of attachment. Hexanoyl(4ξ-Me) = CCC(C)CCC(=O)*; dOrn = NCCC[C@@H](N)C(=O)O; Orn = NCCC[C@H](N)C(=O)O
Key:
K. pneumoniae JS-123 = format: cell-based
Description: (§1) Minimum inhibitory concentrations (MICs) were determined by broth microdilution according to CLSI guidelines in triplicate. Blood agar plates were inoculated with glycerol stocks of E. coli ATCC 25922, E. coli MCR-1 (clinical isolate from Utrecht Medical Centre, NL), E. coli EQAS MCR-2 (clinical isolate from Wageningen University and Research, NL), K. pneumoniae ATCC 11228, K. pneumoniae ATCC 13883, K. pneumonia 2048 (clnical isolate from Vrije Universiteit Amsterdam Medical Centre, NL), K. pneumonia JS-123 (clinical isolate from Utrecht Medical […]
(§2) (clinical isolate from Rijksinstituut voor Volksgezondheid en Milieu, NL), A. baumannii MDR (clinical isolate from Vrije Universiteit Amsterdam Medical Centre, NL), P. aeruginosa ATCC 27853, P. aeruginosa PAO1, P. aeruginosa NRZ-03961 (Reference strain from Das Nationale Referenzzentrum für gramnegative Krankenhauserreger, DE), P. aeruginosa M-120 (clinical isolate from Leiden University Medical Centre, NL) and S. aureus USA300 (clinical isolate from Texas Children's Hospital, USA). E. coli 25922 MCR1 was grown on LB agar supplemented with kanamycin. The inoculated agar plates were then incubated for 16 h at 37°C . Individually grown colonies were subsequently used to inoculate 3 mL aliquots of TSB that were then incubated at 37°C with shaking at 220 rpm. In parallel, the lipopeptide antibiotics to be assessed were serially diluted with Mueller-Hinton broth (MHB) in polypropylene 96-well plates (50 µL in each well).
(§3) Once the OD600 of the bacterial suspensions reached 0.5, the bacteria were diluted with MHB (final concentration 2 × 10^5 CFU mL−1) and added to the microplates containing the test compounds (50 µL to each well, final volume: 100 µL). The well-plates were sealed with an adhesive membrane and after 16 h of incubation at 37°C with shaking at 220 rpm the wells were visually inspected for bacterial growth. MIC values reported are based on three technical replicates and defined as the lowest concentration of the compound that prevented visible growth of bacteria. […]

A. baumannii ATCC 17961 = format: cell-based
Description: as §1, §2, §3

A. baumannii 2018-006 = format: cell-based
Description: as §1, §2, §3

S. aureus USA300 = format: cell-based
Description: as §1, §2, §3

P. aeruginosa M-120 = format: cell-based
Description: as §1, §2, §3

P. aeruginosa PAO1 = format: cell-based
Description: as §1, §2, §3

P. aeruginosa NRZ-03961 = format: cell-based
Description: as §1, §2, §3

A. baumannii ATCC 17978 = format: cell-based
Description: as §1, §2, §3

K. pneumoniae 2048 = format: cell-based
Description: as §1, §2, §3

E. coli ATCC 25922 [1] = format: cell-based
Description: as §1, §2, §3

K. pneumoniae ATCC 13883 = format: cell-based
Description: as §1, §2, §3

K. pneumoniae ATCC 11228 = format: cell-based
Description: as §1, §2, §3

P. aeruginosa ATCC 27853 = format: cell-based
Description: as §1, §2, §3

Gram-negative bacteria = assay: MIC comparison across the bacterial panel of Table 1; format: cell-based; conditions: enantiomer versus natural product, strains of Table 1
Description: as §1
as §2, with “Individually grown colonies were subsequently used to inoculate 3 mL aliquots of TSB that were then incubated at 37°C with shaking at 220 rpm.” left out, “well). […]” for “well).”

[2] = tested on: E. coli MCR-1 (clinical isolate); format: cell-based
Description: as §1, §2, §3

E. coli ATCC 25922 MCR-1 = format: cell-based; conditions: Ec ATCC 25922 MCR-1; broth microdilution (CLSI), MHB, 16 h 37 °C, three technical replicates
Description: as §1, §2, §3

A. baumannii MDR = format: cell-based
Description: as §1, §2, §3

E. coli EQAS MCR-2 = format: cell-based; conditions: Ec EQAS MCR-2; broth microdilution (CLSI), MHB, 16 h 37 °C, three technical replicates
Description: as §1, §2, §3

E. coli ATCC 25922 [3] = assay: Neutropenic mouse thigh infection efficacy study; format: in vivo, mice (ICR); conditions: neutropenic mice, E. coli ATCC 25922 thigh infection, 20 mg kg^−1 SC q8h
Description: In vivo tolerability and efficacy studies
Ethical Issues. Animal experiments were performed under UK Home Office Licences P89653310 (tolerability and PK) and PA67E0BAA (thigh efficacy), with local ethical committee clearance.
Animal Strain. Mice used in these studies were supplied by Charles River (Margate UK) and were specific pathogen free. The strain of mice used was ICR (also known as CD1 Mice) which is a well characterized outbred murine strain. Mice (male) were 11-15 g on receipt and were allowed to acclimatise for at least 7 days.
Animal Housing. Mice were housed in sterilised individual ventilated cages exposing the mice at all times to HEPA filtered sterile air. Mice had free access to food and water and had aspen chip bedding (changed at least once weekly). The room temperature was 22°C +/ - 1°C, with a relative humidity of 60% and maximum background noise of 56 dB. Mice were exposed to 12 h light/dark […]
Test compounds. Compound 6 was dissolved in water for injection in which it formed a clear […]
colourless solution. […]
Compound 6 was administered via subcutaneous administration route at 3 8-h […]
The mice used in the tolerability study were naïve and were not immunosuppressed or infected.
Efficacy study. The in vivo efficacy of compound 6 was assessed in a mouse thigh abscess model where both thighs of each mouse were infected with E. coli ATCC 25922
Immunosuppression. […]
Endpoints. One h and 20.5 (planned 25) h post-infection, the clinical condition of all animals was assessed prior to humane euthanasia using pentobarbitone overdose, and the thighs were removed and weighed. Thigh samples were homogenized in 3mL ice cold sterile PBS; the homogenates were quantitatively cultured onto CLED agar and incubated at 37°C for 18 - 24 h before colonies were […]
Data analysis. The data from the culture burdens were analysed using appropriate non-parametric statistical models (Kruskal-Wallis using Conover-Inman to make all pairwise comparisons between groups) with StatsDirect software v. […]

Compound `CCC(C)CCC(=O)N[C@@H](CC(N)=O)C(=O)N[C@@H](Cc1ccc(O)cc1)C(=O)N[C@@H](Cc1c[nH]c2ccccc12)C(=O)N[C@@H](CCCN)C(=O)N[C@H](CCCN)C(=O)NCC(=O)N[C@@H](CCCN)C(=O)N[C@H](Cc1c[nH]c2ccccc12)C(=O)N[C@H]1C(=O)N[C@H]([C@H](C)CC)C(=O)NCC(=O)N[C@H](CO)C(=O)O[C@H]1C` (single isomer, unassigned) [ent-Brev (ent-1), ent-brevicidine] has an MIC (K. pneumoniae JS-123; JS-123, 16 h) of 8 µg/mL (≈ 5.26 µM), an MIC (A. baumannii ATCC 17961; ATCC 17961, 16 h) of 32 µg/mL (≈ 21.1 µM) and an MIC (A. baumannii 2018-006; 2018-006, 16 h) of 8 to 16 µg/mL. The MIC (S. aureus USA300; USA300, 16 h) was greater than 64 µg/mL, the MIC (P. aeruginosa M-120; M-120, 16 h) was 16 µg/mL (≈ 10.5 µM) and the MIC (P. aeruginosa PAO1; PAO1, 16 h) was 32 µg/mL (≈ 21.1 µM). It also gave an MIC (P. aeruginosa NRZ-03961; NRZ-03961, 16 h) of 32 µg/mL (≈ 21.1 µM), an MIC (A. baumannii ATCC 17978; ATCC 17978, 16 h) of 16 to 32 µg/mL and an MIC (K. pneumoniae 2048; 2048, 16 h) of 32 µg/mL (≈ 21.1 µM). The MIC (E. coli ATCC 25922 [1]; ATCC 25922, 16 h) was 16 µg/mL (≈ 10.5 µM), the MIC (K. pneumoniae ATCC 13883; ATCC 13883, 16 h) was 32 µg/mL (≈ 21.1 µM) and the MIC (K. pneumoniae ATCC 11228; ATCC 11228, 16 h) was 32 µg/mL (≈ 21.1 µM). For the same compound, the MIC (P. aeruginosa ATCC 27853; ATCC 27853, 16 h) was 16 µg/mL (≈ 10.5 µM) and the “MIC values higher than the natural products” value (Gram-negative bacteria) was 8- to 32 fold.
`CCC(C)CCC(=O)N[C@H](CC(N)=O)C(=O)N[C@H](Cc1ccc(O)cc1)C(=O)N[C@H](Cc1c[nH]c2ccccc12)C(=O)N[C@H](CCCN)C(=O)N[C@@H](CCCN)C(=O)NCC(=O)N[C@H](CCCN)C(=O)N[C@@H](Cc1c[nH]c2ccccc12)C(=O)N[C@H]1COC(=O)[C@H](CO)NC(=O)CNC(=O)[C@H]([C@@H](C)CC)NC1=O` (stereo partly drawn) [Ser9-Brev (3), Ser9-Brevicidine] ({Hexanoyl(4ξ-Me)}-[dN][dY][dW][dOrn][Orn]G[dOrn]WSIGS; ester 9-C) showed an MIC (K. pneumoniae JS-123; JS-123, 16 h) of 2 µg/mL (≈ 1.33 µM), an MIC (A. baumannii ATCC 17961; ATCC 17961, 16 h) of 0.5 to 1 µg/mL and an MIC ([2]; MCR-1 (clinical isolate, 16 h)) of 2 µg/mL (≈ 1.33 µM). It also gave an MIC (A. baumannii 2018-006; 2018-006, 16 h) of 2 µg/mL (≈ 1.33 µM), an MIC (S. aureus USA300; USA300, 16 h) greater than 64 µg/mL and an MIC (E. coli ATCC 25922 MCR-1) of 4 µg/mL (≈ 2.66 µM). For the same compound, the MIC (P. aeruginosa M-120; M-120, 16 h) was 2 µg/mL (≈ 1.33 µM), the MIC (P. aeruginosa PAO1; PAO1, 16 h) was 2 to 4 µg/mL and the MIC (P. aeruginosa NRZ-03961; NRZ-03961, 16 h) was 4 µg/mL (≈ 2.66 µM). For the same compound, the MIC (A. baumannii ATCC 17978; ATCC 17978, 16 h) was 2 µg/mL (≈ 1.33 µM), the MIC (A. baumannii MDR; MDR, 16 h) was 1 to 2 µg/mL and the MIC (K. pneumoniae 2048; 2048, 16 h) was 4 µg/mL (≈ 2.66 µM). It also gave an MIC (E. coli EQAS MCR-2) of 4 to 8 µg/mL, an MIC (E. coli ATCC 25922 [1]; ATCC 25922, 16 h) of 4 µg/mL (≈ 2.66 µM) and an MIC (K. pneumoniae ATCC 13883; ATCC 13883, 16 h) of 2 µg/mL (≈ 1.33 µM). For the same compound, the MIC (K. pneumoniae ATCC 11228; ATCC 11228, 16 h) was 2 µg/mL (≈ 1.33 µM) and the MIC (P. aeruginosa ATCC 27853; ATCC 27853, 16 h) was 1 µg/mL (≈ 0.664 µM).
polymyxin B [PolyB, reference compound] gave an MIC (K. pneumoniae JS-123; Kp JS-123, broth microdilution (CLSI), MHB, 16 h 37 °C, three technical replicates) of less than 0.25 µg/mL, an MIC (A. baumannii ATCC 17961; Ab ATCC 17961, broth microdilution (CLSI), MHB, 16 h 37 °C, three technical replicates) of less than 0.25 µg/mL and an MIC ([2]; Ec MCR-1, broth microdilution (CLSI), MHB, 16 h 37 °C, three technical replicates) of 2 to 4 µg/mL. It also gave an MIC (A. baumannii 2018-006; Ab 2018-006, broth microdilution (CLSI), MHB, 16 h 37 °C, three technical replicates) of less than 0.25 µg/mL, an MIC (S. aureus USA300; Sa USA300, broth microdilution (CLSI), MHB, 16 h 37 °C, three technical replicates) of 64 µg/mL and an MIC (P. aeruginosa M-120; Pa M-120, broth microdilution (CLSI), MHB, 16 h 37 °C, three technical replicates) of less than 0.25 µg/mL. It also gave an MIC (P. aeruginosa PAO1; Pa PAO1, broth microdilution (CLSI), MHB, 16 h 37 °C, three technical replicates) of 0.25 to 0.5 µg/mL, an MIC (P. aeruginosa NRZ-03961; Pa NRZ-03961, broth microdilution (CLSI), MHB, 16 h 37 °C, three technical replicates) of 0.25 to 0.5 µg/mL and an MIC (A. baumannii ATCC 17978; Ab ATCC 17978, broth microdilution (CLSI), MHB, 16 h 37 °C, three technical replicates) of less than 0.25 µg/mL. It also gave an MIC (A. baumannii MDR; Ab MDR, broth microdilution (CLSI), MHB, 16 h 37 °C, three technical replicates) of less than 0.25 µg/mL, an MIC (K. pneumoniae 2048; Kp 2048, broth microdilution (CLSI), MHB, 16 h 37 °C, three technical replicates) of 0.5 to 1 µg/mL and an MIC (E. coli EQAS MCR-2) of 4 µg/mL. It also gave an MIC (E. coli ATCC 25922 [1]; Ec ATCC 25922, broth microdilution (CLSI), MHB, 2 × 10^5 CFU/mL, 16 h 37 °C, visual read-out, three technical replicates) of 0.5 µg/mL, an MIC (K. pneumoniae ATCC 13883; Kp ATCC 13883, broth microdilution (CLSI), MHB, 16 h 37 °C, three technical replicates) of 0.25 µg/mL and an MIC (K. pneumoniae ATCC 11228; Kp ATCC 11228, broth microdilution (CLSI), MHB, 16 h 37 °C, three technical replicates) of less than 0.25 µg/mL. The MIC (P. aeruginosa ATCC 27853; Pa ATCC 27853, broth microdilution (CLSI), MHB, 16 h 37 °C, three technical replicates) was less than 0.25 µg/mL and the “antibacterial effect in thigh infection, compared with Dap9-Lat (6) at 40 mg kg^−1” value (E. coli ATCC 25922 [3]) was “comparable”.

Reference: publication PMC8943889, “Synthetic studies with the brevicidine and laterocidine lipopeptide antibiotics including analogues with enhanced properties and in vivo efficacy” (Chemical Science, 2022)
